According to patent US8148532B2, “Spiro substituted compounds as angiogenesis inhibitors” (priority 2007, dated 2012):

Key:
Format in all cases: biochemical
[1] = molecular target: T1, KDR(h) (Homo sapiens, UniProt P35968); test: in vitro tyrosine kinase inhibition, KDR(h)
T1 construct: purchased Millipore Upstate Ltd
Text: (§1) Several in vitro tyrosine kinase inhibition activities can be measured according to the description in Rewcastle, G W, J. Med. Chem. 1996, 39, 918-928 and Edwards M, International Biotechnology Lab 5 (3), 19-25, 1987. Oncogene, 1990, 5: 519-524. The Baculovirus Expression System: A Laboratory Guide, L. A. King 1992. Sambrook et al, 1989, Molecular cloning—A Laboratory Manual, 2nd edition, Cold Spring Harbour Laboratory Press. O'Reilly et al, 1992, Baculovirus Expression Vectors—A Laboratory Manual, W. H. Freeman and Co, New York.
(§2) Receptor tyrosine kinase can be obtained in partially purified form from A-431 cells similar to those described by Carpenter et al., J. Biol. Chem., 1979, 254, 4884, Cohen et al., J. Biol. Chem., 1982, 257, 1523 and by Braun et al., J. Biol. Chem., 1984, 259, 2051. Some of these tests can also be contracted with Millipore Upstate Ltd for screening.

[2] = molecular target: T2, Flt1(h) (Homo sapiens, UniProt P17948); test: in vitro tyrosine kinase inhibition, Flt1(h)
T2 construct: purchased Millipore Upstate Ltd
T2 sequence (P17948 27-1338): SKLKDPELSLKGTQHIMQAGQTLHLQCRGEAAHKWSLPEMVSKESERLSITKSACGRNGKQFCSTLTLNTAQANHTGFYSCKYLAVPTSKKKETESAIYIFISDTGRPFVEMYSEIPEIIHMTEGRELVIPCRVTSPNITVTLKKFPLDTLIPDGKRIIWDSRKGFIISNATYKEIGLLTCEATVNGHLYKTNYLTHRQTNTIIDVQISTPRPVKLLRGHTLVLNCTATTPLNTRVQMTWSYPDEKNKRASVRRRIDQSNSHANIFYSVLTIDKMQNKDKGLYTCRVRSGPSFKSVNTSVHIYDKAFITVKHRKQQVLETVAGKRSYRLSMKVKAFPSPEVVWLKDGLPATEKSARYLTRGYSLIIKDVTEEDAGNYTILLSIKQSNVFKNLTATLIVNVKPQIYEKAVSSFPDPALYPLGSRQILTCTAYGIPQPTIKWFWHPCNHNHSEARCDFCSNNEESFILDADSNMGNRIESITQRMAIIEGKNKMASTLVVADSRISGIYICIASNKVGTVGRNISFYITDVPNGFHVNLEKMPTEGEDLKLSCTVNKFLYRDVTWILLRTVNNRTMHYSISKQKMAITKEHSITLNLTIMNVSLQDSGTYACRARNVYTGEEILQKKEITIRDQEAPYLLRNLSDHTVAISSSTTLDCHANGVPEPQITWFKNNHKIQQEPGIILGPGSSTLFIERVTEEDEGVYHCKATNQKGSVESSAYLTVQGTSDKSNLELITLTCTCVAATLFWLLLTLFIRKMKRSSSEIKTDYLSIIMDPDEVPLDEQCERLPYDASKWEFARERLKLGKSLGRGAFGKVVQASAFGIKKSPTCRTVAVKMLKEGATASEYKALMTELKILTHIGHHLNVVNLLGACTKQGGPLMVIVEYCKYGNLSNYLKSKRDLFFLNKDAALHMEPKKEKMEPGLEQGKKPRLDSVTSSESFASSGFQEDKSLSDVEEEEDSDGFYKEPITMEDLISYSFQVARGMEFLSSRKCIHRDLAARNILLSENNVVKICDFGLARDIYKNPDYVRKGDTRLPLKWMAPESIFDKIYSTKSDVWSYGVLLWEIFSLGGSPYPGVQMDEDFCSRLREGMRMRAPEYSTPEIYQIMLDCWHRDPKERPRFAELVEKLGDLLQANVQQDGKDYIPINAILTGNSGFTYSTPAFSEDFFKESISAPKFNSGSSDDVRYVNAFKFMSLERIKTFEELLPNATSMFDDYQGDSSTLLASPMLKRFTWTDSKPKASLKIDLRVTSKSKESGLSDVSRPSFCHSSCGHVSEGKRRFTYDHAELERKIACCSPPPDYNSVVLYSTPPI
Text: as §1, §2

[3] = molecular target: T3, FGFR1(h) (Homo sapiens, UniProt P11362); test: in vitro tyrosine kinase inhibition, FGFR1(h)
T3 construct: purchased Millipore Upstate Ltd
T3 sequence (P11362 22-822): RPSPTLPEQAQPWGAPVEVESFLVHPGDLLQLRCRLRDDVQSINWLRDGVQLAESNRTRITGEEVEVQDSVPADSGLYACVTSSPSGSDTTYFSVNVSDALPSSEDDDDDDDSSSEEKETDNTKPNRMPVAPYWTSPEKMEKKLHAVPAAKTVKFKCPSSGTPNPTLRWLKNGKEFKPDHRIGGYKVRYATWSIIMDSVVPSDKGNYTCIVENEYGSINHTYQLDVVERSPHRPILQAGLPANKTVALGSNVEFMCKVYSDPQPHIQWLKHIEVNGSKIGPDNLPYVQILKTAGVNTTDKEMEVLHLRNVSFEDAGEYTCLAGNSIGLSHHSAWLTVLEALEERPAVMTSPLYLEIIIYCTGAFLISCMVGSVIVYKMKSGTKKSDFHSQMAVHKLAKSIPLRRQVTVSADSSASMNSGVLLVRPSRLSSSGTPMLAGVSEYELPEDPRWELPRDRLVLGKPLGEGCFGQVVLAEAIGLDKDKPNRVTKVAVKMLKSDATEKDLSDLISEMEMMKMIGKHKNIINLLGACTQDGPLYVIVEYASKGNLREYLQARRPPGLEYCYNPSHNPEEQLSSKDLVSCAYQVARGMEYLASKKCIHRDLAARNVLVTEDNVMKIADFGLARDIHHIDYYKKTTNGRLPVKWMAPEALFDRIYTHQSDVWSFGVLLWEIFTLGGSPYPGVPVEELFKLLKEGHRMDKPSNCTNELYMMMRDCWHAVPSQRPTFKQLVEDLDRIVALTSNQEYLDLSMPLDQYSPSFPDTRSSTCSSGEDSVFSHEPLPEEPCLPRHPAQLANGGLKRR
Text: as §1, §2

[4] = molecular target: T4, Flt4(h) (Homo sapiens, UniProt P35916); test: in vitro tyrosine kinase inhibition, Flt4(h)
T4 construct: purchased Millipore Upstate Ltd
T4 sequence (P35916 25-1363): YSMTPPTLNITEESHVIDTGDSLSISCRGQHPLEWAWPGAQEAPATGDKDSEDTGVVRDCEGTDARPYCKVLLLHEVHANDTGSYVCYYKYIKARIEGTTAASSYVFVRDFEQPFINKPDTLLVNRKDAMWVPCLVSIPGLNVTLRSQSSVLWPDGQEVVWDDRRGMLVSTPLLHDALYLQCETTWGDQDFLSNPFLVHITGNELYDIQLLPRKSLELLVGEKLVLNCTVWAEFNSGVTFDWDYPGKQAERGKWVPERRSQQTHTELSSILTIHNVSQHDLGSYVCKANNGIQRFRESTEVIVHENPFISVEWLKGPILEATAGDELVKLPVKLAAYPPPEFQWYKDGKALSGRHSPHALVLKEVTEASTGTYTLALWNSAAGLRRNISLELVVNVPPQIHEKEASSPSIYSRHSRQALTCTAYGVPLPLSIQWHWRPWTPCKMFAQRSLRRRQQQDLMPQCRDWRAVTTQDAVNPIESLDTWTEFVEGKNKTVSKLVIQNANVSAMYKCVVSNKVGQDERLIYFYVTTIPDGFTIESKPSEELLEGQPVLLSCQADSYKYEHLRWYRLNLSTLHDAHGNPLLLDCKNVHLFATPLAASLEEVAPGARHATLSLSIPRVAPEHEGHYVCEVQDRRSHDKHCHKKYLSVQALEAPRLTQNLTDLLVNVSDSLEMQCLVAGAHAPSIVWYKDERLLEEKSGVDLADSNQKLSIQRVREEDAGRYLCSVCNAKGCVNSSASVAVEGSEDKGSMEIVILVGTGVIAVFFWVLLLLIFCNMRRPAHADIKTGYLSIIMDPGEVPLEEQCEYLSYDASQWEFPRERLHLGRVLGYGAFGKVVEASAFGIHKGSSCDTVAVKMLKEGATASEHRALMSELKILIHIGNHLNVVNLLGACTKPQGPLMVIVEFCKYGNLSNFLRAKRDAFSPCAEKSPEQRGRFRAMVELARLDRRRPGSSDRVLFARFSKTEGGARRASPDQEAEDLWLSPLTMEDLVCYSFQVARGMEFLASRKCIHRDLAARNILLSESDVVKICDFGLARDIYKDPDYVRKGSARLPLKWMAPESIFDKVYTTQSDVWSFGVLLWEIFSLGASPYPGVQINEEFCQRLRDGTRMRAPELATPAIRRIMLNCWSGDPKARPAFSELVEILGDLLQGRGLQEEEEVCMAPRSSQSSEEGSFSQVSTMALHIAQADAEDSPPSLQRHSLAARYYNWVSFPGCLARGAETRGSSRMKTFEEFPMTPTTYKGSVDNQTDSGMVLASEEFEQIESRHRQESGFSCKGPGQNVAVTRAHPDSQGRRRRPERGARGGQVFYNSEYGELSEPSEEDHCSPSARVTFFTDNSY
Text: as §1, §2

T1 sequence (P35968 20-1356): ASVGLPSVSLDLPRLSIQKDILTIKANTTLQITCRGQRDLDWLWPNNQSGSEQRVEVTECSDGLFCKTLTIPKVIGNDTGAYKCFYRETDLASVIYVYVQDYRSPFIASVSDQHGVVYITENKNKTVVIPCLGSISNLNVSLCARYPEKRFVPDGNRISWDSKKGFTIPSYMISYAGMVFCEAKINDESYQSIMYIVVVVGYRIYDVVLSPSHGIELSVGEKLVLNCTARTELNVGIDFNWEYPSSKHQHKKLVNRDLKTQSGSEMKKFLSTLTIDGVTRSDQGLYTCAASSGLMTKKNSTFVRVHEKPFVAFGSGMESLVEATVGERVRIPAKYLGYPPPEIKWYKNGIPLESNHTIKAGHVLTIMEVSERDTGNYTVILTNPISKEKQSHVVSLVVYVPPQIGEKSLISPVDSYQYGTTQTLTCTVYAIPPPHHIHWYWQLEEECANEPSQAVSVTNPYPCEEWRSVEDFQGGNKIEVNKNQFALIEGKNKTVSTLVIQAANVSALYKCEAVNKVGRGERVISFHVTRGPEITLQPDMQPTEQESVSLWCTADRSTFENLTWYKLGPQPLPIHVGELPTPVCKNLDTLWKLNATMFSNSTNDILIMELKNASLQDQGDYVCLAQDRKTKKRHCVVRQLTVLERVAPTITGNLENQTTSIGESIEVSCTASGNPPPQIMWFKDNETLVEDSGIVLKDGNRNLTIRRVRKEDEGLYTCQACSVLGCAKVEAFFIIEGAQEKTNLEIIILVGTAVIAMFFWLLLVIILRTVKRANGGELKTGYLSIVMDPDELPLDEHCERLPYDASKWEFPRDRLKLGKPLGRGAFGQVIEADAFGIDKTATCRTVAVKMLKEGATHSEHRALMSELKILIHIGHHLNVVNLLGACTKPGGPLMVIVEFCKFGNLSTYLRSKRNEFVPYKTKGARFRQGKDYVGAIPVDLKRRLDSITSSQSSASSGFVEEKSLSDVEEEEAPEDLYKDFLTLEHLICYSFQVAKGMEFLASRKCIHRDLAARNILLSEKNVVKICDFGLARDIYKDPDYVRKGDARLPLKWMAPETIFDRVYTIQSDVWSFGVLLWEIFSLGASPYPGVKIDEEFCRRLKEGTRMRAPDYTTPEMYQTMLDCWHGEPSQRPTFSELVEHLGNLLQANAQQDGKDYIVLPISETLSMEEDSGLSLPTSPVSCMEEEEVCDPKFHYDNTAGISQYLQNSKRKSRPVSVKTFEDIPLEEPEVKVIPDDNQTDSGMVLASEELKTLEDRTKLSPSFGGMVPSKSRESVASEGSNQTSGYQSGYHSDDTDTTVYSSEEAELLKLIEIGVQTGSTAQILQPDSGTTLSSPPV

## COc1cc2c(Oc3ccc4[nH]c(C)cc4c3F)ccnc2cc1OCC1(N)CC1 [AL3818]
[1]
  IC50: 45 nM
[2]
  IC50: 4 nM
[3]
  IC50: 20 nM
[4]
  IC50: 1 nM
